Results from publication PMC3726599, “A Metabolically-Stabilized Phosphonate Analog of Lysophosphatidic Acid Attenuates Collagen-Induced Arthritis” (PLoS ONE, 2013).

How the values were obtained:
recombinant ATX [1] = biological target: T1, recombinant ATX (Homo sapiens, UniProt Q13822); assay: TOOS activity assay, LPC hydrolysis by recombinant ATX; format: biochemical; conditions: substrate Km, TOOS
T1 construct: purchased SinoBiological Inc (main data); R&D (additional Km values)
Protocol: ATX/LysoPLD activity was assessed based on the amount of choline released from LPC with the use of TOOS (N-ethyl-N-(2-hydoroxy-3-sulfopropyl)-3-methylaniline) reagent. In this assay ATX-mediated LPC-liberated choline is oxidised by choline oxidase to betaine and hydrogen peroxide (H2O2). The latter in the presence of horseradish peroxidase reacts with TOOS and 4-aminoantipyrene (4-AAP) to form a pink quinoneimine dye measured at 555 nm.
Diluted plasma samples (100 fold dilution; final EDTA concentration 0.5 mM) or recombinant ATX protein (2 nM) were incubated with LPC in the presence of 100 mmol/l Tris–HCl/pH 9.0, 500 mmol/l NaCl, 5 mmol/l MgCl2, 5 mmol/l CaCl2, 60 μM CoCl2 and 0.05% Triton X-100 for 3 h at 37°C at a final volume of 100 μl. It should be noted that EDTA was used not only as an anticoagulant but also as an inhibitor of ATX activity ex vivo [46], in order to suppress artificial LPA production during blood withdrawal and plasma preparation; this is because the same samples were used in phospholipid measurements.
The liberated choline was detected by adding 100 μl of a color mix containing 4-AAP and TOOS (0.3 mM), horseradish peroxidase (5.3 UnitmL^−1) and choline oxidase (2 UnitmL^−1). Absorbance was measured at 555 nm and data were analyzed using the statistical software package Prism 4.0 (Graphpad Software Inc, La Jolla, CA, USA). For each sample and control the absorbance was plotted against time and the slope (da/min) for the linear (steady-state) portion of each reaction profile was calculated. Absorbance units were converted to nmol of choline/min/ml by comparison with a choline standard curve or by use of the extinction coefficient for the quinoneimine dye according to the following equation: [drawing 1] Where Vt* is the total volume of reaction in ml (0.2 ml); Vs* is the volume of sample in ml; e is the millimolar extinction coefficient of quinoneimine dye under the assay conditions (e = e = […]); and 1/2: Factor based on the fact that 1 mol of hydrogen peroxide produces 1/2 mol of quinoneimine dye.
(§1) The biochemistry of lyso-PLD was assessed by following the kinetics data using a wide panel of different ATX substrates [FS-3, different LPC species (14:0, 16:0, 18:0, 18:1)], three different recombinant ATX proteins (R&D, Sino-Biological and Echelon) and three different ATX activity assays (FS-3, TOOS, Amplex Red). The ATX activity was measured at different substrate concentrations (typically from 1-1000 μM) in order to examine whether ATX follows Michaelis-Menten kinetics. The Michaelis constant (Km) was obtained by fitting the substrate dependence of V (ATX activity) to a rectangular hyperbola using the non-linear regression analysis of the statistical software package Prism 4.0 (GraphPad Software, Inc.). Km and Vmax were evaluated from the rectangular hyperbola curve with the use of GraphPad software.
(§2) For in vitro inhibition measurements, BrP-LPA was dissolved in water as a stock solution (4 mM) and appropriate dilutions were made in water. The inhibition of ATX by BrP-LPA was measured employing 2 nM recombinant ATX, 50 μΜ LPC (14:0, 16:0, 18:0) and 0.01 to 100 μmol/L of BrP-LPA (final concentrations). The in vitro inhibition of ATX by BrP-LPA was evaluated with three different assays (FS-3, Amplex Red, and TOOS). […] BrP-LPA was also tested for its ability to inhibit mouse plasma ATX activity. Diluted mouse plasma was used as the source of ATX and the analysis of inhibition was made with TOOS as the in vitro inhibition assay.
The inhibition model (competitive, noncompetitive, or mixed type inhibition) was evaluated by graphical analysis with Lineweaver–Burk double reciprocal plots (1/[velocity] versus 1/[substrate]) and Cornish-Bowden plot ([substrate]/[velocity] versus [Inhibitor]). These plots were generated by the measurement of ATX activity in the presence of different BrP-LPA concentrations (0–10 μΜ) and increased amounts of 16:0 LPC (100, 200, 400 μΜ). […]

recombinant ATX [2] = biological target: T1, recombinant ATX; assay: Amplex Red activity assay, LPC hydrolysis by recombinant ATX (Echelon); format: biochemical; conditions: substrate Km, recombinant ATX from Echelon
Protocol: BrP-LPA inhibition was also tested with the more sensitive reagent Amplex Red based on the Amplex™ Red PLD assay kit (Molecular Probes, Interchim, Montluçon, France) originally designed for the measurement of the PLD activity, [49]. All reactions were performed with purified ATX (2 nM) from Echelon at 37°C. The ability of ATX to cleave LPC was detected using a coupled assay that monitors the release of choline using Amplex Red (10 μΜ), choline oxidase (0.2 Units/ml) and horseradish peroxidise (2 Units/ml) The rate of fluorescence increase was measured in a fluorescence plate reader (Tecan Infinite 200 microplate reader from Tecan Trading AG, Switzerland) for up to 80 minutes; the fluorescence increase was linear during that time-frame for all cases. Rates were normalized to control reactions that contained all reaction components except for the test compound.
as §1, §2
The inhibition model (competitive, noncompetitive, or mixed type inhibition) was evaluated by graphical analysis with Lineweaver–Burk double reciprocal plots (1/[velocity] versus 1/[substrate]) and Cornish-Bowden plot ([substrate]/[velocity] versus [Inhibitor]). These plots were generated by the measurement of ATX activity in the presence of different BrP-LPA concentrations (0–10 μΜ) and increased amounts of 16:0 LPC (100, 200, 400 μΜ). The inhibition constants (Ki) and IC50 values were determined using the mean values obtained from two independent experiments. The relative remaining ATX activity or LPA levels in the presence of the BrP-LPA was expressed as a percentage of the corresponding control value (ATX activity, LPA levels without inhibitor). The IC50 value was determined graphically by plotting the log concentration of BrP-LPA versus relative remaining ATX activity or LPA levels of each test sample using the sigmoid dose–response fitting method (Prism® software). The IC50 (concentration of BrP-LPA sufficient to inhibit ATX activity or diminish LPA levels by 50%) was calculated by the equation f = y0+a/(1+exp(-(x-x0)/b)) given by SigmaPlot 11.0 (Systat Software, Inc., San Jose, CA, USA).
Ki was calculated using the equation of Cheng and Prusoff: Ki = IC50/1+[S]/Km, where Ki is the binding affinity of the inhibitor, IC50 is the functional strength of the inhibitor, [S] is substrate concentration and Km is the concentration of substrate at which enzyme activity is half maximal. Whereas the IC50 value for a compound may vary between experiments depending on experimental conditions, Ki is an absolute value. […]

[3] = tested on: K/BxN serum transfer RA model; design: method as in PMID 18491295, PMID 22354754; conditions: cited from earlier work
[4] = tested on: COX-2 expression from SFs; design: method as in PMID 18802115; conditions: cited from earlier work
[5] = design: method as in PMID 22354754; conditions: cited from earlier work
[6] = recombinant ATX from Sinobiological Inc

Compound | Km (recombinant ATX [1]; recombinant ATX from R&D) [µM] | Km (recombinant ATX [1]; [6]) [µM] | Km (recombinant ATX [2]) [µM] | other results
CCCCCCCCCCCCCCCC(=O)OC[C@@H](O)COP(=O)([O-])OCC[N+](C)(C)C [16:0 LPC, reference compound] | 90 | 60 ± 11 | – | –
CCCCCCCCCCCCCCCCCC(=O)OC[C@@H](O)COP(=O)([O-])OCC[N+](C)(C)C [18:0 LPC, reference compound] | 114 | 82 ± 11 | 116 ± 13 | –
CCCCCCCCCCCCCC(=O)OC[C@@H](O)COP(=O)([O-])OCC[N+](C)(C)C [14:0 LPC, reference compound] | – | – | 80 ± 9 | –
Cc1noc(-c2ccc(CSCCC(=O)O)cc2)c1NC(=O)OC(C)c1ccccc1Cl (stereo not shown) [ki16425] | – | – | – | arthritis severity [3]: reduction of arthritis severity; LPA-mediated COX-2 expression [4]: inhibit LPA-mediated COX-2 expression; half-life [5]: very short half-life
CCCCCCCC/C=C\CCCCCCCC(=O)OC[C@@H](O)COP(=O)([O-])OCC[N+](C)(C)C [18:1 LPC, reference compound] | – | 55 ± 10 | – | –
